Data taken from patent publication USRE37770E1, “Treatment of skin conditions by use of PPARα activators” (The Regents of the University of California, priority 1997, dated 2002).

Tests used:
[1] = system: Skin explants from gestational day 17 rats; test: Light and electron microscopy of fetal rat skin explants (epidermal maturation); type: cell-based
Description: Samples for light microscopy were fixed in modified Karnovsky's solution, plastic-embedded, and 0.5 μm sections were stained with toluidine. Samples for electron microscopy were minced into 1 mm^3 pieces, fixed in modified Karnovsky's fixative, and processed. Sections were stained with uranyl acetate and lead citrate, post-fixed in ruthenium tetroxide, and examined using a Zeiss 10A electron microscope.
Explants incubated in various media woe examined by light microscopy. The incubation di included control medium (containing no activators) and various media individually containing 300 μM clofibrate, 100 μM juvenile hormone III, 300 μM oleic acid, 30 μM linoleic acid, 50 μM farnesol, and various concentrations of 9-cis-retinoic acid, all-trans-retinoic acid, and 1,25-dihydroxy vitamin D3.
Observations were then made of the ultrastructural maturation of the outer epidermis in explants that had been incubated in the various media and then post-fixed in ruthenium tetroxide. Media identical to those of the preceding paragraph were used, excluding the retinoic acid-containing and 1,25-dihydroxy vitamin D3-containing media.

fetal rodent skin = conditions: earlier studies (Hanley et al. 1996); cited from earlier work
β-Glucocerebrosidase = β-Glucocerebrosidase activity in epidermis of treated fetal rat skin explants; type: cell-based, rats; conditions: clofibrate (300 μM), juvenile hormone III (100 μ), mean of five ± SEM
Description: (§1) Epidermis was separated from dermis after incubation in 10 mM ethylenediamine tetraacetic acid (EDTA) in Ca^++- and Mg^++-free phosphate-buffered saline (PBS), pH 7.4, at 37° C. for 30-40 minutes. The tissues were then minced, and homogenized on ice (three times at 15 seconds each with a Polytron homogenizer, followed by sonication twice at ten seconds each at 35% power) in either PBS containing 0.1 mM phenylmethylsulfonyl fluoride (PMSF) and 0.1% Triton X-100 (for β-glucocerebrosidase) or in 10 mM Tris (PH 7.5) containing 0.15 M sucrose and 2 mM EDTA (for steroid sulfatase). β-Glucocerebrosidase activity was measured in the supernatant following centrifugation at 10,000×g for fifteen minutes at 4° C. Steroid sulfatase activity was measured in the microsomal fraction resulting from a […] centrifugation (10 minutes, 4° C.) followed by 60 minutes of 100,000×g ultracentrifugation at 4° C. Protein content was measured by conventional techniques.
β-Glucocerebrosidase) activity was assayed using the synthetic substrate 4-methylumbelliferyl β-D-glucoside (4-MUG). The assays were performed in 5 mM sodium taurocholate in citrate-phosphate buffer (pH 5.6) with 0.5 mM 4-MUG for sixty minutes at 37° C., with a final assay volume of 100 μL, and protein concentration of 1-2 mg/mL. The reaction was terminated with 2 mL of carbonate-bicarbonate buffer (pH 10.5). The fluorescence was then measured at […] (excitation) and 450 λ (emission) and compared with a standard 4-methylumbelliferone (4-MU) curve.
(§2) Skin explants from 17-day fetal rats were incubated for 24 or 48 hours in media individually containing clofibrate (300 μM) and juvenile hormone III […], and control media. Enzyme activity was measured and the results are presented in Table I as the mean values of five determinations±SEM (standard error of the mean). All p values are ≦0.005 compared with controls of the same time period.

Steroid Sulfatase = test: Steroid sulfatase activity in epidermis of treated fetal rat skin explants; type: cell-based, rats; conditions: clofibrate (300 μM), juvenile hormone III (100 μ), mean of five ± SEM
Description: as §1
Steroid sulfatase activity was measured by incubating 100 μg of microsomal protein in 0.1 M Tris containing 5.6 mM glucose (pH 7.4) with 15 μM, (^3H) dihydroepiandrosterone sulfate (DHEAS) (15 μCi) in a final volume of 1.1 mL The product, (^3H) DHEA, was extracted with benzene and an aliquot counted by scintillation spectrophotometry.
as §2

[2] = system: Normal human keratinocytes; test: Cornified envelope formation (35S incorporation) in keratinocytes; type: cell-based; conditions: 0.03 mM calcium, 48-hour
[3] = system: full-thickness flank skin from the fetal rats; test: Transepidermal water loss (TEWL) of fetal rat skin explants in organ culture (barrier function); type: cell-based, Sprague-Dawley rats; conditions: for EC50: Rattus norvegicus, read-out: concentration of half-maximal effect on barrier development (TEWL); for EC50 / concentration of maximal effect on barrier development (TEWL): dose response, FIGS. 4a-4c
Description: Timed pregnant Sprague-Dawley rats (plug date=day 0) were obtained from Simonsen (Gilroy, Calif., USA) and fetuses were delivered prematurely on day 17. Transepidermal water loss (TEWL) was measured in excised full-thickness flank skin from the fetal rats after various times in culture. The skin explants were placed dermis-side down onto collagen membrane inserts (3μ pore size) in medium M-199 (serum-free), and submerged, and the lateral edges and dermal surface were sealed with petrolatum, such that water loss occurred only through the epidermal surface. Explant samples were weighed hourly, at ambient temperature (24±3° C.) and humidity (40±5%), over 6 hours using a Cahn balance (sensitivity 0.001 mg). TEWL levels are reported as milligrams of water lost per square millimeter of epidermal surface per hour. Fatty acids and clofibrate (p-chlorophenoxyisobutyric acid) were added to the medium bound to 0.5% (weight/volume) bovine serum albumin (BSA). Isoprenoids and oxysterols were added in ethanol (≦0.1%) and juvenile hormone III was added as a dimethylsulfoxide (DMSO) solution (≦0.1%). Control explants were incubated in the presence of the appropriate vehicle (≦0.1% DMSO or ethanol, and/or ≦0.5% BSA). Skin explants from gestational day 17 rats were incubated in the presence of either various activators or vehicle, and transepidermal water loss was measured after two days. The activators and the concentrations at which they were used were as follows: […]

involucrin protein = test: Involucrin protein level in keratinocytes by Western Blot; type: cell-based, Human; conditions: 0 to 15 μM, 0.03 mM Ca++, 24 hours
Description: Measurements of the level of the involucrin protein itself were performed in the culture medium by Western Blot. Various incubations were performed, in media containing clofibrate at concentrations ranging from 0 (vehicle only) to 400 μM and calcium ion at both 0.03 mM and 1.2 mM. The results are shown in FIG. 9a for tests with calcium ion at 0.03 mM, and in FIG. 9b for tests with calcium ion at 1.2 mM. In these figures, the protein contents are expressed as percents of the respective measurements taken from media incubated for the same period of time but in the absence of clofibrate.
The procedures of Example 8 were followed, and measurements were taken on the involucrin protein levels from cells incubated at various concentrations of farnesol and juvenile hormone III ranging from 0 (vehicle only) to 15 μM, in media containing 0.03 mM and 1.2 mM calcium ion, for 24 hours. The results are shown in FIG. 10 for farnesol and FIG. 11 for juvenile hormone III, in 0.03 mM Ca^++.
Protein concentration was assessed by protein electrophoresis and Western blotting. Cells were lysed is 2% SDS and the lysate sonicated. Protein determinations were made by use of a Bicinchoninic add protein assay (Pierce Chemical Company, Rockford, Ill. USA). Following protein determination, equal amounts at protein (50 μg) were separated by electrophoresis an 7.5% polyacrylamide gels and electroblotted onto polyvinylidene […] membranes (0.2-μ, obtained from Bio-Rad Laboratories Hercules, Calif., USA). Involucrin protein was detected by incubation over-night at 4° C. C. with a polyclonal rabbit anti-human involucrin antibody (1:1000 dilution). The involucrin-specific bands on the autoradiograms were quantitated by densitometry by densitometry. Transglutaminase protein expression was measured in a similar mmaner, using stacking, sample and running buffers containing 4 M urea, and the gels following electrophoresis were washed in 4 M urea, 25 mM TRIS-HCl, pH 7.4, 7.5 mM NaCl, 0.1 mM dithiothreitol (DTT), and 2 mM ethylenediamine tetraacetic acid for 90 minutes prior to electoblotting, allowing the transglutaminase to be detected by antibody. Specific bands on the autoradiograms were quantified by densitometry.

CC1=C(/C=C/C(C)=C/C=C/C(C)=C/C(=O)O)C(C)(C)CCC1 [all-trans-retinoic acid]
light microscopy of the epidermis ([1]; various concentrations): did not exhibit a distinct stratum corneum | acceleration of the appearance of a mature barrier in fetal rodent skin (fetal rodent skin): had no effect

CC1=C(/C=C/C(C)=C\C=C\C(C)=C\C(=O)O)C(C)(C)CCC1 [9-cis-retinoic acid]
light microscopy of the epidermis ([1]; various concentrations): did not exhibit a distinct stratum corneum | acceleration of the appearance of a mature barrier in fetal rodent skin (fetal rodent skin): had no effect

COC(=O)C=C(C)CCC=C(C)CCC1OC1(C)C (stereo not drawn) [juvenile hormone III, 7-methyl-9-(3,3-dimethyloxiranyl)-3-methyl-2,6-nonadienoic acid methyl ester]
β-Glucocerebrosidase Activity (β-Glucocerebrosidase; 24-Hour Incubation): 2.89 ± 0.20 nmol/min/mg | β-Glucocerebrosidase Activity (β-Glucocerebrosidase; 48-Hour Incubation): 5.20 ± 0.62 nmol/min/mg | Steroid Sulfatase Activity (Steroid Sulfatase; 24-Hour Incubation): 12.55 ± 1.25 pmol/h/mg | Steroid Sulfatase Activity (Steroid Sulfatase; 48-Hour Incubation): 18.23 ± 2.35 pmol/h/mg | light microscopy of the epidermis ([1]; 100 μM, 48 hours): had both a multi-layered stratum granulosum and a stratum corneum | rate of cornified envelope formation ([2]; 15 μM): substantial increases in the rate of cornified envelope formation | effect on TEWL / barrier formation ([3]; 100 μM, two days): significantly accelerated barrier formation | EC50 [3]: ~75 µM | concentration of maximal effect on barrier development (TEWL) [3]: approximately 250 μM

C=C1/C(=C\C=C2/CCC[C@]3(C)[C@@H]([C@H](C)CCCC(C)(C)O)CC[C@@H]23)C[C@@H](O)C[C@@H]1O [1,25-dihydroxyvitamin D3]
light microscopy of the epidermis ([1]; various concentrations): did not exhibit a distinct stratum corneum | acceleration of the appearance of a mature barrier in fetal rodent skin (fetal rodent skin): had no effect

CC(C)=CCC/C(C)=C/CC/C(C)=C/CO [farnesol, 3,7,11,trimethyl-2,6,10-dodecatrienol]
light microscopy of the epidermis ([1]; 50 μM, 48 hours): had both a multi-layered stratum granulosum and a stratum corneum | rate of cornified envelope formation ([2]; 10 μM): substantial increases in the rate of cornified envelope formation | involucrin protein content (involucrin protein): substantial increases in involucrin protein content | effect on TEWL / barrier function ([3]; 50 μM, two days): markedly decreased the TEWL | EC50 [3]: ~20 µM | concentration of maximal effect on barrier development (TEWL) [3]: approximately 50 μM
